From patent publication US7928139B2 (Amgen Inc., priority 2006, dated 2011)
pIC50: −log10 of the molar value.

Target: HIF PHD2 (Homo sapiens, UniProt Q9GZT9)
Assay: PHD2 inhibition assay (TR-FRET, VCB-Eu detection of hydroxylated P564-HIF1α peptide)
Assay type: biochemical
Conditions: 2 nM PHD2, 100 nM P564-HIF1α peptide, 0.25 μM 2-oxoglutarate, 100 μM FeCl2, 2 mM ascorbic acid
Method in brief: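 Human PHD2 (2 nM final) preincubated 1 h at room temperature with compound and 100 μM FeCl2 in pH 6 MES buffer, 5% DMSO final. Reaction with 100 nM biotinylated P564-HIF1α peptide, 2 mM ascorbate and 0.25 μM 2-oxoglutarate for 1 h, stopped with succinate. Hydroxylation read by TR-FRET (VCB-Eu/streptavidin-APC, 655/615 nm); IC50 from 4-parameter fit of percent of control.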

Chain of HIF PHD2 (Q9GZT9 whole entry): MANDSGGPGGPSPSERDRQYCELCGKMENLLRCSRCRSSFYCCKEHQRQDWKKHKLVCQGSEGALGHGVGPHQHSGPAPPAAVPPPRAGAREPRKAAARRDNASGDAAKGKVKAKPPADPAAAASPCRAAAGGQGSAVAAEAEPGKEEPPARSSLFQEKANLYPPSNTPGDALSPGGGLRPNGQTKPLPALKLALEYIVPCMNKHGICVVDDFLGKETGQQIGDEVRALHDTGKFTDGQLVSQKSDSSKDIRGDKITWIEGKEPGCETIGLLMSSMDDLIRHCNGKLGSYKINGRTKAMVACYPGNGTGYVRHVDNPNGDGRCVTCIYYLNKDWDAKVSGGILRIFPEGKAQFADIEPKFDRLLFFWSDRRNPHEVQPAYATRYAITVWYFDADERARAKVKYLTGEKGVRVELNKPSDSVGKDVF

Row | Molecule | pIC50
1 | CC1(C#N)C(=O)C(C(=O)CCC(=O)O)=C(O)c2cc(Cl)ccc21 (centres unmarked) [Example 123, 4-(7-chloro-4-cyano-3-hydroxy-4-methyl-1-oxo-1,4-dihydro-2-naphthalenyl)-4-oxobutanoic acid] | 5.00 to 6.00
2 | CC1(C)C(=O)C(C(=O)CCC(=O)O)=C(O)c2ccc(F)c(F)c21 [Example 126, 4-(5,6-difluoro-1-hydroxy-4,4-dimethyl-3-oxo-3,4-dihydronaphthalen-2-yl)-4-oxobutanoic acid] | 6.30 to 7.00
3 | CC1(C)C(=O)C(C(=O)CCC(=O)O)=C(O)c2ccc(Cl)cc21 [Example 127, 4-(6-chloro-1-hydroxy-4,4-dimethyl-3-oxo-3,4-dihydronaphthalen-2-yl)-4-oxobutanoic acid] | 6.30 to 7.00
4 | O=C(O)CCC(=O)C1=C(O)c2ccc(Cl)cc2C2(CCOCC2)C1=O [Example 128, 4-(7-chloro-2-hydroxy-4-oxo-2′,3′,5′,6′-tetrahydro-4H-spiro[naphthalene-1,4′-pyran]-3-yl)-4-oxobutanoic acid] | > 7.00
5 | CC1(C#N)C(=O)C(C(=O)NCC(=O)O)=C(O)c2ccc(Cl)cc21 (centres unmarked) [Example 129, 2-(7-chloro-1-cyano-4-hydroxy-1-methyl-2-oxo-1,2-dihydronaphthalene-3-carboxamido) acetic acid] | > 7.00
6 | CC1(C#N)C(=O)C(C(=O)NCC(=O)O)=C(O)c2ccc(F)cc21 (centres unmarked) [Example 130, 2-(1-cyano-7-fluoro-4-hydroxy-1-methyl-2-oxo-1,2-dihydronaphthalene-3-carboxamido) acetic acid] | > 7.00
7 | CC1(C#N)C(=O)C(C(=O)NCC(=O)O)=C(O)c2cc(F)ccc21 (centres unmarked) [Example 131, 2-(1-cyano-6-fluoro-4-hydroxy-1-methyl-2-oxo-1,2-dihydronaphthalene-3-carboxamido) acetic acid] | > 7.00
8 | CC1(C#N)C(=O)C(C(=O)NCC(=O)O)=C(O)c2ccc(Br)cc21 (centres unmarked) [Example 132, 2-(7-bromo-1-cyano-4-hydroxy-1-methyl-2-oxo-1,2-dihydronaphthalene-3-carboxamido) acetic acid] | > 7.00
9 | CC1(C#N)C(=O)C(C(=O)NCC(=O)O)=C(O)c2cc(F)c(F)cc21 (centres unmarked) [Example 133, 2-(1-cyano-6,7-difluoro-4-hydroxy-1-methyl-2-oxo-1,2-dihydronaphthalene-3-carboxamido) acetic acid] | > 7.00
10 | (R)-2-(7-bromo-1- cyano-4-hydroxy-1- methyl-2-oxo-1,2- dihydronaphthalene- 3-carboxamido) acetic acid or (S)-2-(7-bromo-1- cyano-4-hydroxy-1- methyl-2-oxo-1,2- dihydronaphthalene- 3-carboxamido) acetic acid [Example 134] | > 7.00
11 | (R)-2-(7-chloro-1- cyano-4-hydroxy-1- methyl-2-oxo-1,2- dihydronaphthalene- 3-carboxamido) acetic acid or (S)-2-(7-chloro-1- cyano-4-hydroxy-1- methyl-2-oxo-1,2- dihydronaphthalene- 3-carboxamido) acetic acid [Example 136] | > 7.00
